Here are results for 23 compounds from patent publication US10028992B2, “Methods of treating muscular dystrophy” (BOARD OF REGENTS OF THE NEVADA SYSTEM OF HIGHER EDUCATION …, priority 2012, dated 2018).

The subject of this experiment is α7 integrin promoter. Nature of the experiment: muscle cell-based assay: α7βgal+/− myoblasts/myotubes, LacZ reporter, β-galactosidase cleavage of FDG. Also on record: species or system mouse; Results in α7+/− β-galactosidase assay: scale not given here. The note with it: Myoblasts. An outline of the steps:
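Fluorescein generated from FDG by β-galactosidase reports α7 integrin promoter activity in differentiated myoblasts from α7+/− LacZ knock-in pups. Screening hits then went to dose-response, western blotting and a myostatin counterscreen.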

Molecules are shown by their SMILES.

Consider `COc1ccccc1/C=C1\C(=O)Nc2ccccc21` [drawing 700], for which the “Results in α7+/− β-galactosidase assay” value by setting is: (0.5 uM) 0.2078; (1 uM) 0.1004; (5 uM) 0.141; (10 uM) 0.312; (20 uM) −0.00605; (40 uM) −0.06928.
For `CN1C(=O)N(CC(=O)N2CCN(S(=O)(=O)c3ccc(Cl)s3)CC2)C(=O)C12CCCCC2` [drawing 701], the “Results in α7+/− β-galactosidase assay” value was 0.1065 (0.5 uM); 0.03367 (1 uM); 0.1338 (5 uM); 0.2611 (10 uM); −0.306 (20 uM); −0.5075 (40 uM).
Consider `Cn1cc(CN2CCC(C(=O)Nc3cccc(-c4cscn4)c3)CC2)cn1` [drawing 702], for which the “Results in α7+/− β-galactosidase assay” value by setting is: (0.5 uM) 0.1618; (1 uM) 0.05749; (5 uM) 0.02884; (10 uM) 0.2457; (20 uM) −0.3975; (40 uM) −0.5369.
For `O=C1Cc2ccccc2/C1=C\c1ccc([N+](=O)[O-])cc1` [drawing 703], the “Results in α7+/− β-galactosidase assay” value (0.5 uM) is recorded as 0.04429; the “Results in α7+/− β-galactosidase assay” value (1 uM) is reported as −0.00937; the “Results in α7+/− β-galactosidase assay” value (5 uM) came out at 0.02036; the “Results in α7+/− β-galactosidase assay” value (10 uM) turned out to be 0.1452; the “Results in α7+/− β-galactosidase assay” value (20 uM) was −0.2086; the “Results in α7+/− β-galactosidase assay” value (40 uM) is listed as −0.4972.
Turning to `CCCC(=O)OCC(=O)c1[nH]c(C)c(C(C)=O)c1C` [drawing 704], the “Results in α7+/− β-galactosidase assay” value runs as follows: (0.5 uM) 0.1272; (1 uM) 0.03672; (5 uM) 0.01568; (10 uM) 0.2296; (20 uM) −0.2776; (40 uM) −0.5017.
As to `CCO/C(C)=C1\C(=O)Nc2ccccc21` [drawing 705], the “Results in α7+/− β-galactosidase assay” value (0.5 uM) was −0.00711; the “Results in α7+/− β-galactosidase assay” value (1 uM) turned out to be 0.04915; the “Results in α7+/− β-galactosidase assay” value (5 uM) turned out to be 0.06742; the “Results in α7+/− β-galactosidase assay” value (10 uM) is 0.09535; the “Results in α7+/− β-galactosidase assay” value (20 uM) is on record as −0.0389; the “Results in α7+/− β-galactosidase assay” value (40 uM) was −0.1063.
As for `COc1ccc(C(=O)Nc2ccc(Cl)cn2)cc1Cl` [drawing 706], the “Result in α7+/− β-galactosidase assay” value is, setting by setting: (0.5 uM) 0.1451; (1 uM) 0.1676; (5 uM) −0.1344; (10 uM) −0.2645; (20 uM) −0.7598; (40 uM) −0.8234.
For the compound `CCOc1ccccc1NC(=O)c1cccc2c1C(=O)N(C1CCCCC1)C2` [drawing 707], the “Result in α7+/− β-galactosidase assay” value is, setting by setting: (0.5 uM) 0.2793; (1 uM) 0.1772; (5 uM) −0.01616; (10 uM) 0.02001; (20 uM) 0.1258; (40 uM) 0.02179.
Consider `CCOC(=O)C1CCCN(C(=O)CNS(=O)(=O)c2ccc(Br)s2)C1` (stereo not drawn) [drawing 708], for which the “Result in α7+/− β-galactosidase assay” value (0.5 uM) is recorded as −0.01823; the “Result in α7+/− β-galactosidase assay” value (1 uM) is reported as 0.07424; the “Result in α7+/− β-galactosidase assay” value (5 uM) is recorded as −0.1417; the “Result in α7+/− β-galactosidase assay” value (10 uM) is −0.1278; the “Result in α7+/− β-galactosidase assay” value (20 uM) is −0.1459; the “Result in α7+/− β-galactosidase assay” value (40 uM) is listed as −0.2189.
In the case of `Cc1nnc(SCC(=O)c2ccc(Br)cc2)s1` [drawing 709], the “Result in α7+/− β-galactosidase assay” value is, setting by setting: (0.5 uM) 0.3789; (1 uM) 0.2434; (5 uM) 0.08324; (10 uM) 0.1001; (20 uM) 0.111; (40 uM) −0.07647.
Take `Cn1ccc(C(=O)Nc2cccnc2Cl)n1` [drawing 710]: the “Result in α7+/− β-galactosidase assay” value runs as follows: (0.5 uM) 0.1419; (1 uM) 0.09145; (5 uM) 0.0569; (10 uM) 0.1922; (20 uM) −0.0349; (40 uM) −0.1785.
For `CCOC(=O)c1sc(=N)n(-c2ccc(OC)cc2)c1C` [drawing 711], the “Result in α7+/− β-galactosidase assay” value runs as follows: (0.5 uM) 0.2274; (1 uM) 0.1661; (5 uM) −0.01196; (10 uM) 0.01787; (20 uM) −0.3971; (40 uM) −0.6044.
Regarding `COc1c(Cl)cc(/C=C2\C(=O)Nc3ccccc32)cc1Cl` [drawing 712], the “Result in α7+/− β-galactosidase assay” value is, setting by setting: (0.5 uM) 0.2725; (1 uM) 0.2417; (5 uM) 0.01335; (10 uM) 0.04886; (20 uM) 0.1098; (40 uM) −0.01132.
Consider `COc1c(Cl)cc(/C=C2\C(=O)Nc3ccccc32)cc1Cl` [drawing 713], for which the “Result in α7+/− β-galactosidase assay” value was 0.3543 (0.5 uM); 0.1322 (1 uM); −0.0815 (5 uM); −0.2165 (10 uM); −0.302 (20 uM); −0.4698 (40 uM).
`CC(=O)Oc1c(Cl)cc(/C=C2\C(=O)Nc3ccccc32)cc1Cl` [drawing 714]: the “Result in α7+/− β-galactosidase assay” value runs as follows: (0.5 uM) 0.1697; (1 uM) −0.08406; (5 uM) 0.02082; (10 uM) 0.02563; (20 uM) −0.00439; (40 uM) −0.1892.
`CCN(CC)CCNC(=O)c1c(C)[nH]c(CC2C(=O)Nc3ccc(F)cc32)c1C` (stereo not drawn) [drawing 715]: the “Result in α7+/− β-galactosidase assay” value is −0.1627 (0.5 uM); 0.03203 (1 uM); −0.6776 (5 uM); −0.9863 (10 uM); −0.9859 (20 uM); −0.9872 (40 uM).
In the case of `O=C1Nc2ccccc2/C1=C1\Nc2ccccc2C1=O` [drawing 716], the “Result in α7+/− β-galactosidase assay” value reads like this: (0.5 uM) 0.06101; (1 uM) 0.0859; (5 uM) −0.394; (10 uM) −0.2837; (20 uM) −0.157; (40 uM) −0.1933.
`Cc1[nH]c(/C=C2\C(=O)Nc3ccccc32)c(C)c1CCC(=O)O` [drawing 717]: the “Result in α7+/− β-galactosidase assay” value reads like this: (0.5 uM) 0.01086; (1 uM) 0.05675; (5 uM) −0.0938; (10 uM) −0.1338; (20 uM) −0.04064; (40 uM) −0.0832.
For the compound `Cc1cc(C)c(/C=C2\C(=O)Nc3ccccc32)[nH]1` [drawing 718], the “Result in α7+/− β-galactosidase assay” value is, setting by setting: (0.5 uM) 0.03555; (1 uM) 0.05336; (5 uM) −0.2683; (10 uM) −0.3603; (20 uM) −0.2204; (40 uM) −0.3534.
Turning to `Cc1cc(C)c(/C=C2\C(=O)Nc3ccccc32)[nH]1` [drawing 720], the “Result in α7+/− β-galactosidase assay” value (0.5 uM) is −0.06315; the “Result in α7+/− β-galactosidase assay” value (1 uM) was −0.0048; the “Result in α7+/− β-galactosidase assay” value (5 uM) is reported as −0.2673; the “Result in α7+/− β-galactosidase assay” value (10 uM) is reported as −0.3421; the “Result in α7+/− β-galactosidase assay” value (20 uM) is reported as −0.3332; the “Result in α7+/− β-galactosidase assay” value (40 uM) is −0.4797.
In the case of `Cc1cc(C)c(/C=C2\C(=O)Nc3ccccc32)[nH]1` [drawing 721], the “Result in α7+/− β-galactosidase assay” value was −0.05673 (0.5 uM); −0.01961 (1 uM); −0.2468 (5 uM); −0.2855 (10 uM); −0.1121 (20 uM); −0.2422 (40 uM).
As to `O=C1Nc2ccccc2/C1=C1/Nc2ccccc2/C1=N\O` [drawing 722], the “Result in α7+/− β-galactosidase assay” value (0.5 uM) stood at 0.1752; the “Result in α7+/− β-galactosidase assay” value (1 uM) is 0.3255; the “Result in α7+/− β-galactosidase assay” value (5 uM) is reported as −0.404; the “Result in α7+/− β-galactosidase assay” value (10 uM) was −0.681; the “Result in α7+/− β-galactosidase assay” value (20 uM) was −0.6914; the “Result in α7+/− β-galactosidase assay” value (40 uM) is −0.8176.
Take `CCN(CC)CCNC(=O)c1c(C)[nH]c(CC2C(=O)Nc3ccc(F)cc32)c1C` (stereo not drawn) [drawing 723]: the “Result in α7+/− β-galactosidase assay” value runs as follows: (0.5 uM) 0.02287; (1 uM) 0.01135; (5 uM) −0.471; (10 uM) −0.913; (20 uM) −0.9852; (40 uM) −0.9864.
